Reference: patent US20230025316A1, “OLAPARIB PHARMACEUTICAL COMPOSITION, FORMULATION THEREOF, PREPARATION METHOD THEREOF AND USE THEREOF” (Sinotherapeutics Inc., priority 2020, published 2023)

Assays:
[1] = Dissolution, USP Method 1 (Basket Method), pH 6.8 phosphate buffer; type: physicochemical; settings: 900 mL, 100 rpm, 37.5° C., 150 mg Olaparib/cup
Procedure: 5. Dissolution sample analysis: the same as the HPLC analysis method described in the above-mentioned apparent solubility assay.
The main absorption site of drugs in the human body is the small intestine, and the pH value in the small intestine is about 6.8. According to the method described above, the dissolution of each Olaparib-cyclodextrin pharmaceutical composition in pH 6.8 phosphate buffer was determined, and the results were shown in Table 1-4.

[2] = Apparent solubility in pH 6.8 phosphate buffer (shaker, HPLC); type: physicochemical
Procedure: 3. Apparent solubility: excess amount of Olaparib pharmaceutical composition was weighed into a container, about ⅔ of the volume of the container with pH 6.8 phosphate buffer was added, and the container was placed in a shaker at 37° C. for 2 h. After filtering the contents of the container with a 0.45 μm filter membrane, the filtrate was collected, diluted with an appropriate amount of acetonitrile, mixed by vortex, and the concentration of Olaparib was determined by HPLC analysis.

Cumulative dissolution in pH 6.8 phosphate buffer ([1]; 15 min): 12.2%
Cumulative dissolution in pH 6.8 phosphate buffer ([1]; 30 min): 21.4%
Cumulative dissolution in pH 6.8 phosphate buffer ([1]; 45 min): 30.2%
Cumulative dissolution in pH 6.8 phosphate buffer ([1]; 60 min): 37.5%
Cumulative dissolution in pH 6.8 phosphate buffer ([1]; 90 min): 39.8%
solubility at 2 h ([2]; aqueous buffer, thermodynamic from solid, pH 6.8 phosphate buffer, 37° C., 2 h): < 100 µg/mL
Solubility ratio (Composition/API) ([2]; pH 6.8 buffer, apparent solubility relative to API): 1
Structure (SMILES): O=C(c1cc(Cc2n[nH]c(=O)c3ccccc23)ccc1F)N1CCN(C(=O)C2CC2)CC1 [API, 4-[(3-{[4(cyclopropylcarbonyl)piperazin-1-yl]carbonyl}-4-fluorophenyl)methyl]phthalazin-1(2H)-one]
